In ChEMBL document CHEMBL3044921, “Synthesis, characterization, and SAR studies of new (1H-indol-3-yl)alkyl-3-(1H-indol-3-yl)propanamide derivatives as possible antimicrobial and antitubercular agents” (2013):
Converted amounts (≈) assume the structure as drawn.

Tested on: Mycobacterium tuberculosis
Experiment: Antitubercular activity against multidrug-resistant Mycobacterium tuberculosis assessed as growth inhibition at 0.3125 to 5 ug/mL after 7 days by resazurin reduction test
Format: functional
Settings: 168 h

With `Cn1cc(CCC(=O)NCc2c[nH]c3ccc(Cl)cc23)c2cc(Cl)ccc21` the MIC was 6.25 µg/mL (≈ 15.6 µM).

`Cn1cc(CCCNC(=O)CCc2cn(C)c3ccc(Cl)cc23)c2cc(Cl)ccc21` gave an MIC of 25 µg/mL (≈ 56.5 µM).

With `Cc1[nH]c2ccc(OC(F)(F)F)cc2c1CCCNC(=O)CCc1c[nH]c2ccc(Cl)cc12` the MIC was > 50 µg/mL.

With `Cc1c(CCCNC(=O)CCc2c[nH]c3ccc(Cl)cc23)c2cc(OC(F)(F)F)ccc2n1C` the MIC was > 50 µg/mL.

In the case of `Cn1cc(CCC(=O)NCCCc2c[nH]c3ccc(OC(F)(F)F)cc23)c2cc(Cl)ccc21`, the MIC is reported as 6.25 µg/mL (≈ 13.1 µM).

Work on `Cc1c(CCCNC(=O)CCc2cn(C)c3ccc(Cl)cc23)c2cc(OC(F)(F)F)ccc2n1C` yielded an MIC of 1.25 µg/mL (≈ 2.47 µM).

With `Cn1cc(CCC(=O)NCCCc2c[nH]c3ccc(Cl)cc23)c2cc(Cl)ccc21` the MIC was 2.5 µg/mL (≈ 5.84 µM).

For `Cn1cc(CCCNC(=O)CCc2c[nH]c3ccc(Cl)cc23)c2cc(OC(F)(F)F)ccc21`, the MIC was 12.5 µg/mL (≈ 26.2 µM).

For `O=C(CCc1c[nH]c2ccc(Cl)cc12)NCc1c[nH]c2ccc(OC(F)(F)F)cc12`, the MIC was > 50 µg/mL.

For `Cc1[nH]c2ccc(OC(F)(F)F)cc2c1CNC(=O)CCc1c[nH]c2ccc(Cl)cc12`, the MIC was 6.25 µg/mL (≈ 13.9 µM).

`Cc1c(CNC(=O)CCc2c[nH]c3ccc(Cl)cc23)c2cc(OC(F)(F)F)ccc2n1C` was tested, and the MIC was > 50 µg/mL.

In the case of `Cn1cc(CNC(=O)CCc2c[nH]c3ccc(Cl)cc23)c2cc(Cl)ccc21`, the MIC is reported as > 50 µg/mL.

Work on `Cn1cc(CCC(=O)NCc2c[nH]c3ccc(OC(F)(F)F)cc23)c2cc(Cl)ccc21` yielded an MIC of 6.25 µg/mL (≈ 13.9 µM).

For `Cc1c(CNC(=O)CCc2cn(C)c3ccc(Cl)cc23)c2cc(OC(F)(F)F)ccc2n1C`, the MIC was > 50 µg/mL.

`Cn1cc(CCC(=O)NCc2cn(C)c3ccc(Cl)cc23)c2cc(Cl)ccc21` was tested, and the MIC was > 50 µg/mL.

`O=C(CCc1c[nH]c2ccc(Cl)cc12)NCc1c[nH]c2ccc(Cl)cc12` gave an MIC of 6.25 µg/mL (≈ 16.2 µM).

For `Cc1[nH]c2ccc(OC(F)(F)F)cc2c1CNC(=O)CCc1cn(C)c2ccc(Cl)cc12`, the MIC was > 50 µg/mL.

For `NNC(=O)c1ccncc1` [ISONIAZID], the MIC was 12.5 µg/mL (≈ 91.1 µM).

For `CO[C@H]1/C=C/O[C@@]2(C)Oc3c(C)c(O)c4c(O)c(c(/C=N/N5CCN(C)CC5)c(O)c4c3C2=O)NC(=O)/C(C)=C\C=C\[C@H](C)[C@H](O)[C@@H](C)[C@@H](O)[C@@H](C)[C@H](OC(C)=O)[C@@H]1C` [RIFAMPIN], the MIC was 25 µg/mL (≈ 30.4 µM).
